In the supplement of paper PMC10307832:

What was measured:
Assay in all cases: relative viability (nuclei count vs DMSO), 5 days (fraction); higher = more cells survive
[1] = compound: CC[C@H](Nc1ncnc2[nH]cnc12)c1nc2cccc(F)c2c(=O)n1-c1ccccc1 [Idelalisib] + CS(=O)(=O)CCNCc1ccc(-c2ccc3ncnc(Nc4ccc(OCc5cccc(F)c5)c(Cl)c4)c3c2)o1 [Lapatinib] (partner 2 µM)
Procedure, shortened: (§1)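 Lung cancer cell lines were pin-tool dosed in 1536-well plates on the day after seeding, with either a lone drug or a fixed anchor-drug dose plus five library-drug doses (not always all listed) in √10 steps. Nuclei were counted on 4× images after 5 days. Relative viability is the ratio of treated-well to vehicle-well nuclei counts, with each value a median of duplicate plates.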

[2] = compound: Nc1nc2[nH]cc(CCc3ccc(C(=O)N[C@@H](CCC(=O)O)C(=O)O)cc3)c2c(=O)[nH]1 [Pemetrexed] + CC(C)C[C@H](NC(=O)[C@H](Cc1ccccc1)NC(=O)c1cnccn1)B(O)O [Bortezomib] (partner 0.002 µM)
Procedure, shortened: as §1

[3] = compound: Nc1nc2[nH]cc(CCc3ccc(C(=O)N[C@@H](CCC(=O)O)C(=O)O)cc3)c2c(=O)[nH]1 [Pemetrexed] + CS(=O)(=O)N1CCN(Cc2cc3nc(-c4cccc5[nH]ncc45)nc(N4CCOCC4)c3s2)CC1 [Pictilisib] (partner 1 µM)
Procedure, shortened: as §1

[4] = compound: Nc1nc2[nH]cc(CCc3ccc(C(=O)N[C@@H](CCC(=O)O)C(=O)O)cc3)c2c(=O)[nH]1 [Pemetrexed] + N=C(N)NC(=N)NCCc1ccccc1 [Phenformin] (partner 250 µM)
Procedure, shortened: as §1

Cell Line	relative viability ([1]; first compound 0.04 µM)	relative viability ([1]; first compound 0.1265 µM)	relative viability ([1]; first compound 0.4 µM)	relative viability ([1]; first compound 1.265 µM)	relative viability ([1]; first compound 4 µM)	relative viability ([2]; first compound 0.002 µM)	relative viability ([2]; first compound 0.006325 µM)	relative viability ([2]; first compound 0.02 µM)	relative viability ([2]; first compound 0.06325 µM)	relative viability ([2]; first compound 0.2 µM)	relative viability ([3]; first compound 0.002 µM)	relative viability ([3]; first compound 0.006325 µM)	relative viability ([3]; first compound 0.02 µM)	relative viability ([3]; first compound 0.06325 µM)	relative viability ([3]; first compound 0.2 µM)	relative viability ([4]; first compound 0.002 µM)	relative viability ([4]; first compound 0.006325 µM)	relative viability ([4]; first compound 0.02 µM)	relative viability ([4]; first compound 0.06325 µM)	relative viability ([4]; first compound 0.2 µM)
NCI-H1563	1.01	1.05	0.833	1	0.83	0.784	0.869	0.978	0.855	0.932	0.705	0.609	0.665	0.634	0.625	0.745	0.649	0.67	0.651	0.64
NCI-H1650	0.888	0.806	0.762	0.775	0.561	0.208	0.208	0.204	0.22	0.2	0.545	0.559	0.658	0.333	0.226	0.415	0.39	0.408	0.309	0.231
NCI-H1651	0.707	1	0.577	0.825	0.868	0.992	0.919	0.945	0.892	0.911	0.627	0.49	0.658	0.554	0.556	0.299	0.354	0.377	0.285	0.368
NCI-H1666	0.549	0.641	0.419	0.505	0.456	0.682	0.752	0.875	0.766	0.421	0.373	0.481	0.347	0.497	0.306	0.577	0.55	0.625	0.551	0.537
NCI-H1734	0.93	1.03	0.989	0.958	0.98	0.911	1.01	0.929	0.944	0.705	0.461	0.457	0.489	0.475	0.376	0.459	0.343	0.458	0.373	0.386
NCI-H1755	1.11	0.999	0.966	1.06	0.97	0.819	0.952	1.04	1.01	0.867	0.327	0.416	0.532	0.45	0.318	0.594	0.409	0.647	0.627	0.507
NCI-H1792	0.465	0.942	0.903	0.878	0.918	0.931	0.969	0.966	0.943	0.927	0.252	0.298	0.325	0.255	0.252	0.311	0.368	0.297	0.252	0.272
NCI-H1915	1.06	1	0.96	1.11	0.922	0.937	1.02	1.04	0.965	0.943	0.786	0.933	1.13	0.929	0.957	0.358	0.39	0.373	0.357	0.381
NCI-H1975	0.966	0.99	0.836	0.889	0.61		0.427	0.386	0.309	0.213		0.3	0.299	0.271	0.221	0.331	0.39	0.413	0.32	0.237
NCI-H1993	0.816	0.887	0.76	0.802	0.84	1.04	1.08	1.22	0.99	0.695	0.899	0.97	0.819	0.743	0.882	0.445	0.455	0.493	0.532	0.489
NCI-H2009	0.944	1.04	0.883	0.572	0.93	0.911	0.954	1.15	0.974	1	0.785	0.763	0.824	0.744	0.723	0.466	0.494	0.539	0.47	0.477
NCI-H2023	0.837	1.01	0.525	0.775	0.724	0.519	0.912	1.04	0.815	0.304	0.136	0.231	0.237	0.218	0.117	0.343	0.397	0.473	0.354	0.203
NCI-H2085	0.744	0.757	0.687	0.723	0.503	1.01	1.19	1.04	1.09	1.05	0.503	0.425	0.506	0.548	0.507	0.664	0.685	0.735	0.808	0.779
NCI-H2087	1.15	1.06	1.13	1.11	1.18	0.834	0.639	0.919	1.04	0.523	0.692	0.79	0.938	0.67	0.581	0.397	0.446	0.475	0.473	0.47
NCI-H2126	0.808	0.785	0.634	0.764	0.728	1.04	1.14	1.19	1.06	1.06	0.451	0.479	0.494	0.487	0.436	0.536	0.555	0.574	0.507	0.486
NCI-H2228	1.21	1.14	0.875	1.23	1.03	0.934	0.918	1.07	0.754	0.339	0.194	0.427	0.379	0.35	0.238	0.308		0.268	0.2	0.184
